{"source": "patent US6994981B2", "about": "“Modulators of paraptosis and related methods” (The Buck Institute, priority 2002, dated 2006)", "key": {"[1]": {"tested_on": "caspases, calpains, proteasome", "experiment": "Protease activation during SP-induced cell death, substrate hydrolysis in cytosolic extracts of NK1R-transfected 293T cells", "format": "biochemical, human", "description": "Preparation of cell-free extract for kinetic studies: 293T cells seeded at the density of 2 million cells per 10 cm dish were transfected with NK1R cDNA using Lipofectamine 2000 (Gibco) according the instructions provided by the manufacturer. After 24 hr 10 nM SP was added to half of the culture dishes. At 24 hr later the cells were washed with ice cold PBS and collected with a cell scraper. The cells pelleted at 700×g for 4 min were resuspended in cell lysis buffer at pH 7.4 containing 1 mM dithiothreitol at a ratio of 1:1 (v/v). After 30 min on ice the swelled cells were disrupted with 20 strokes using a 27 gauge needle and further spun at 16,000×g for 30 min. The pellet was discarded and the supernatant which represents the cytosolic fraction was aliquoted and stored at −80° C. or used in the kinetic studies. The protein concentration was determined using the Bradford assay (Pierce).\nFor kinetic studies, the proteolytic activities were followed fluorometrically by monitoring AFC or AMC release from 100 μM of the corresponding substrates (Enzyme Systems Products): Caspase-1 like, Ac-YVAD-AFC; caspase-2, Ac-VDVAD-AFC; caspases-3 like, Ac-DEVD-AFC; caspase-6, Ac-VEID-AFC; caspase-8, Ac-IETD-AFC; caspase-9, Ac-LEHD-AFC. Calpain activity was monitored with 100 μM Suc-LY-AFC (succinyl-Leu-Tyr-7-amino-4-methylcoumarin, Enzyme Systems Products) at 5 μM and 5 mM CaCl2. The chymotrypsin activity of the proteasome was followed with 100 μM Suc-LLVY-AFC (succinyl-Leu-Leu-Val-Tyr-7-amino-4-methylcoumarin, Enzyme Systems Products), and cathepsins were assayed using 20 μM Z-FR-AMC (Benzyloxycarbonyl-Phe-Arg-7-amino-4-methylcoumarin, Bachem). A 10 μl aliquot of extract in the presence or absence of SP was added to 90 μl of substrate at the appropriate concentration and pH. The reaction was continuously monitored during 30 min and 37° C. in a fluorescence microplate reader (Molecular Devices). The instrument was set at excitation and emission wavelengths of 405 and 510 for AFC releasing group, and 370 and 460 nm, for AMC releasing group, respectively. The steady-state hydrolysis rates were obtained from the linear part of the curves."}, "[2]": {"tested_on": "cytoplasmic calcium", "experiment": "Imaging of cytoplasmic calcium in single striatal cells", "format": "cell-based", "description": "Single-cell imaging was performed in a Merlin imaging facility (Olympus America, USA) using an Olympus IX70 inverted epifluorescence microscope equipped with a 40× oil immersion objective and a Spectramaster monochromator (Life Science Resources, Cambridge, UK) (excitation, 340 and 380 nm; emission >505 nm). Cells were loaded with 3 μM Fura-2 AM (from TEF LABS, Texas, USA) for 30 min in incubation medium containing (in mM): 120 NaCl, 3.5 KCl, 1.3 CaCl2, 0.4 KH2PO4, 20 TES buffer, 5 NaHCO3, 1.2 Na2SO4, 15 Glucose, 1.2 MgCl2, pH adjusted to 7.4 with NaOH. 30 μg/ml bovine serum albumin was also added. Experiments were performed in a non-perfusing thermostatted chamber (37° C.) with incubation medium without bovine serum albumin (Castilho et al., J. Neurosci. 18:10277–10286 (1998))."}, "[3]": {"tested_on": "cytochrome c release", "settings": "cell-free system of apoptosis; cited from earlier work"}, "[4]": {"tested_on": "total cellular cAMP", "experiment": "cAMP quantification in 293T cells overexpressing NK1R", "format": "cell-based, human", "settings": "compared with 10 μM forskolin", "description": "Total cellular cAMP was measured using the BiotrakBIOTRAK™ non-acetylation enzymeimmunoassay system (Amersham Phramacia Biotech), following manufacturer's instructions. Forskolin (Sigma) was added at 10 μM."}, "[5]": {"tested_on": "ERK-1/2", "experiment": "Western blot of ERK-1/2 phosphorylation in striatal neurons", "format": "cell-based, rat", "settings": "after 10–30 min of SP stimulation; total ERK-1/2 unchanged", "description": "For the transfected 293T cells, cells were washed with cold PBS after incubation with SP the time indicate and homogenized on lysis buffer (150 mM NaCl, 1% Triton X-100, 50 mM Tris HCL pH8.0). Cytoplasmic extracts were collected after 10 min centrifugation at 14,000 rcf. Total amount of protein was quantified by Bradford assay and electrophoresis of equal amounts of total protein was performed on SDS-polyacrylamide gels. Separated proteins were transferred to polyvinylidene fluoride membranes at 4° C. for Western blot analysis. Membranes were probed with a 1:1000 dilution of anti-ERK-1/2 or anti phospho-ERK-1/2 (BioSource). The blots were incubated in a horseradish peroxidase coupled secondary antibody for 1 h followed by enhanced chemiluminescence detection of the proteins with […]™ ECL detection (Amersham, Arlington Heights, Ill.). For striatal neurons, total ERK-1/2 was immunoprecipitated using superparamagnetic Microbeads conjugated to protein A, following manufacture's instructions (MACS, Miltenyi Biotec), and then developed by Western blot against either anti-ERK-1/2 or anti phospho-ERK-1/2."}}, "data": [{"substance": "SP: eleven amino acid neurotransmitter of the tachykinin family, ligand of NK1R", "values": [{"measurement": "activation of calpains and chymotrypsin-like activity of the proteasome", "setting": "[1]", "result": "no significant effect on the rates of substrate hydrolysis"}, {"measurement": "hydrolysis of substrates for initiator and executioner caspases", "setting": "[1]; 10 nM SP, 24 hr", "result": "no hydrolysis of substrates"}, {"measurement": "DEVDase activity in response to SP stimulation", "setting": "[1]; extracts with granzyme B added", "result": "no significant difference"}, {"measurement": "change in cytoplasmic calcium", "setting": "[2]", "result": "did not induce a detectable change"}, {"measurement": "cytochrome c release", "setting": "[3]", "result": "can induce cytochrome c release"}, {"measurement": "production of cAMP in response to SP", "setting": "[4]", "result": "Neither the wild type nor the mutant NK1Rd342 overexpressed in 293T cells generated a significant amount of cAMP"}, {"measurement": "amount of phosphorylated ERK-1/2", "setting": "[5]", "result": "increase"}]}]}
